Experimental data published in patent US11377425B1, “Small molecule modulators of IL-17” (LEO Pharma A/S, priority 2018, dated 2022).

Molecular target: T1, human IL-17AA (Homo sapiens, UniProt Q16552)
T1 construct: host or cells: HEK (human embryonic kidney) cells
T1 sequence (Q16552 24-155): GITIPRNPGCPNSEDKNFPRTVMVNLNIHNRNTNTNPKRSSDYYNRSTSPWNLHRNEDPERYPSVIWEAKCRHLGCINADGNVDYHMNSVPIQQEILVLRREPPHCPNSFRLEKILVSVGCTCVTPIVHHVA
Experiment: IL-8 release assay in human epithelial keratinocytes adult (HEKa)
Type: cell-based
Conditions: HEKa cells, 3 ng/mL HEK-human IL-17AA + 10 ng/mL human TNFalpha; read-out: Rel EC50 IL-8 release assay
Method in brief: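 IL-8 release, quantified by HTRF and normalized to controls, reports IL-17 signaling in HEKa cells treated with compound plus final 3 ng/mL IL-17AA (HEK-derived) and 10 ng/mL TNF-alpha for 68-72 h; TNF-alpha-only wells set 100% inhibition. Four-parameter logistic fits (r^2>0.9) give relative IC50 and Emax; PrestoBlue flags cytotoxicity.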

Row | SMILES | EC50 [µM]
1 | CCC(CC)[C@H](NC(=O)c1ccnn1C(C)C)C(=O)Nc1ccc(-c2c(C)n[nH]c2C)cc1 [Example 121] | 0.1 to 1
2 | Cc1n[nH]c(C)c1-c1ccc(NC(=O)[C@@H](NC(=O)c2ccnn2CCN(C)C)C(C2CC2)C2CC2)cc1 [Example 131, N-[(1S)-1-(dicyclopropylmethyl)-2-[4-(3,5-dimethyl-1H-pyrazol-4-yl)anilino]-2-oxo-ethyl]-2-(2-dimethylaminoethyl) pyrazole-3-carboxamide] | 0.1 to 1
3 | Cc1n[nH]c(C)c1-c1ccc(NC(=O)[C@@H](NC(=O)c2ccnn2[C@@H](C)CO)[C@@H]2C[C@H](C)C[C@H](C)C2)cc1 [Example 141, N-[(1S)-1-[(3R,55)-3,5-dimethylcyclohexyl]-2-[4-(3,5-dimethyl-1H-pyrazol-4-yl)anilino]-2-oxo-ethyl]-2-[(1S)-2-hydroxy-1-methyl-ethyl]pyrazole-3-carboxamide] | < 0.1
4 | Cc1n[nH]c(C)c1-c1ccc(NC(=O)[C@@H](NC(=O)c2ccnn2C)C2C[C@@H](C)C[C@@H](C)C2)cc1 (stereo partly drawn) [Example 146, N-[(1S)-1-[(3R,5S)-3,5-dimethylcyclohexyl]-2-[4-(3,5-dimethyl-1H-pyrazol-4-yl)anilino]-2-oxo-ethyl]-2-methyl-pyrazole-3-carboxamide] | < 0.1
5 | Cc1n[nH]c(C)c1-c1ccc(NC(=O)[C@@H](NC(=O)c2ccnn2C)C2C[C@@H](C)C[C@@H](C)C2)cc1 (stereo partly drawn) [Example 147, N-[(1S)-1-[(3R,5S)-3,5-dimethylcyclohexyl]-2-[4-(3,5-dimethyl-1H-pyrazol-4-yl)anilino]-2-oxo-ethyl]-2-methyl-pyrazole-3-carboxamide] | < 0.1
6 | Cc1n[nH]c(C)c1-c1ccc(NC(=O)[C@@H](NC(=O)c2cnnn2C(C)C)[C@H]2CC[C@H](C)CC2)cc1 [Example 148, N-[(1S)-2-[4-(3,5-dimethyl-1H-pyrazol-4-yl)anilino]-1-(4-methylcyclohexyl)-2-.oxo-ethyl]-3-isopropyl-tnazole-4-carboxamide] | < 0.1
7 | CCn1nncc1C(=O)N[C@H](C(=O)Nc1ccc(-c2c(C)n[nH]c2C)cc1)[C@H]1CC[C@H](C)CC1 [Example 149, N-[(1S)-2-[4-(3,5-dimethyl-1H-pyrazol-4-yl)anilino]-1-(4-methylcyclohexyl)-2-oxo-ethyl]-3-ethyl-triazole-4-carboxamide] | 0.1 to 1
8 | Cc1n[nH]c(C)c1-c1ccc(NC(=O)[C@@H](NC(=O)c2ccnn2CCS(C)(=O)=O)C(C2CC2)C2CC2)cc1 [Example 158, N-[(1S)-1-(dicyclopropylmethyl)-2-[4-(3,5-dimethyl-1H-pyrazol-4-yl)anilino]-2-oxo-ethyl]-2-(2-methylsulfonylethyl) pyrazole-3-carboxamide] | < 0.1
9 | Cc1n[nH]c(C)c1-c1ccc(NC(=O)[C@@H](NC(=O)c2ncnn2C(C)C)C(C2CC2)C2CC2)cc1 [Example 162, N-[(1S)-1-(dicyclopropylmethyl)-2-[4-(3,5-dimethyl-1H-pyrazol-4-yl)anilino]-2-oxo-ethyl]-2-isopropyl-1,2,4-triazole-3-carboxamide] | 0.1 to 1
10 | Cc1n[nH]c(C)c1-c1ccc(NC(=O)[C@@H](NC(=O)c2ncnn2C)C(C2CC2)C2CC2)cc1 [Example 163, N-[(1S)-1-(dicyclopropylmethyl)-2-[4-(3,5-dimethyl-1H-pyrazol-4-yl)anilino]-2-oxo-ethyl]-2-methyl-1,2,4-triazole-3-carboxamide] | > 1
11 | Cc1n[nH]c(C)c1-c1ccc(NC(=O)[C@@H](NC(=O)c2ccnn2CCCO)C(C2CCC2)C2CCC2)cc1 [Example 166, N-[(1S)-1-[di(cyclobutyl)methyl]-2-[4-(3,5-dimethyl-1H-pyrazol-4-yl)anilino]-2-oxo-ethyl]-2-(3-hydroxypropyl)pyrazole-3-carboxamide] | < 0.1
12 | Cc1n[nH]c(C)c1-c1ccc(NC(=O)[C@@H](NC(=O)c2ccccc2)C(C2CC2)C2CC2)cc1 [Example 167, N-[(1S)-1-(dicyclopropylmethyl)-2-[4-(3,5-dimethyl-1H-pyrazol-4-yl)anilino]-2-oxo-ethyl]benzamide] | 0.1 to 1
13 | Cc1n[nH]c(C)c1-c1ccc(NC(=O)[C@@H](NC(=O)C(C)(C)C)C(C2CC2)C2CC2)cc1 [Example 168, N-[(1S)-1-(dicyclopropylmethyl)-2-[4-(3,5-dimethyl-1H-pyrazol-4-yl)anilino]-2-oxo-ethyl]-2,2-dimethyl-propanamide] | > 1
14 | Cc1n[nH]c(C)c1-c1ccc(NC(=O)[C@@H](NC(=O)C2CCC2)C(C2CC2)C2CC2)cc1 [Example 169, N-[(1S)-1-(dicyclopropylmethyl)-2-[4-(3,5-dimethyl-1H-pyrazol-4-yl)anilino]-2-oxo-ethyl]cyclobutane carboxamide] | > 1
15 | Cc1n[nH]c(C)c1-c1ccc(NC(=O)[C@@H](NC(=O)C2CCCC2)C(C2CC2)C2CC2)cc1 [Example 170, N-[(1S)-1-(dicyclopropylmethyl)-2-[4-(3,5-dimethyl-1H-pyrazol-4-yl)anilino]-2-oxo-ethyl]cyclopentane carboxamide] | 0.1 to 1
16 | Cc1n[nH]c(C)c1-c1ccc(NC(=O)[C@@H](NC(=O)c2ccnn2C(C)C#N)C(C2CC2)C2CC2)cc1 (stereo partly drawn) [Example 171, 2-(1-cyanoethyl)-N-[(1S)-1-(dicyclopropylmethyl)-2-[4-(3,5-dimethyl-1H-pyrazol-4-yl)anilino]-2-oxo-ethyl]pyrazole-3-carboxamide] | > 1
17 | Cc1n[nH]c(C)c1-c1ccc(NC(=O)[C@@H](NC(=O)c2ccn(C(C)C#N)n2)C(C2CC2)C2CC2)cc1 (stereo partly drawn) [Example 172, 1-(1-cyanoethyl)-N-[(1S)-1-(dicyclopropylmethyl)-2-[4-(3,5-dimethyl-1H-pyrazol-4-yl)anilino]-2-oxo-ethyl]pyrazole-3-carboxamide] | > 1
18 | Cc1n[nH]c(C)c1-c1ccc(NC(=O)[C@@H](NC(=O)c2ccnn2CCC(O)C(F)(F)F)C(C2CC2)C2CC2)cc1 (stereo partly drawn) [Example 179, N-[(1S)-1-(dicyclopropylmethyl)-2-[4-(3,5-dimethyl-1H-pyrazol-4-yl)anilino]-2-oxo-ethyl]-2-(4,4,4-trifluoro-3-hydroxy-butyl)pyrazole-3-carboxamide] | < 0.1
19 | CCn1nccc1C(=O)N[C@H](C(=O)Nc1ccc(-c2c(C)n[nH]c2C)cc1)[C@@H]1CC2(CC2)CCC1(F)F [Example 180, N-[(1S)-1-[(7S)-6,6-difluorospiro[2.5]octan-7-yl]-2-[4-(3,5-dimethyl-1H-pyrazol-4-yl)anilino]-2-oxo-ethyl]-2-ethyl-pyrazole-3-carboxamide] | < 0.1

Results, then the compound that gave them:

Row | EC50 [µM] | SMILES
20 | < 0.1 | Cc1n[nH]c(C)c1-c1ccc(NC(=O)[C@@H](NC(=O)c2ccnn2CCO)C(C2CCC2)C2CCC2)cc1 [Example 122]
21 | < 0.1 | Cc1n[nH]c(C)c1-c1ccc(NC(=O)[C@@H](NC(=O)c2ccnn2C)[C@H]2CC[C@H](C)CC2)cc1 [Example 125, Trans N-[(1S)-2-[4-(3,5-dimethyl-1H-pyrazol-4-yl)anilino]-1-(4-methylcyclohexyl)-2-oxo-ethyl]-2-methyl-pyrazole-3-carboxamide]
22 | < 0.1 | CCn1nccc1C(=O)N[C@H](C(=O)Nc1ccc(-c2c(C)n[nH]c2C)cc1)[C@H]1CC[C@H](C)CC1 [Example 126, Trans N-[(1S)-2-[4-(3,5-dimethyl-1H-pyrazol-4-yl)anilino]-1-(4-methylcyclohexyl)-2-oxo-ethyl]-2-ethyl-pyrazole-3-carboxamide]
23 | < 0.1 | Cc1n[nH]c(C)c1-c1ccc(NC(=O)[C@@H](NC(=O)c2ccnn2C(C)C)[C@H]2CC[C@H](C)CC2)cc1 [Example 127, Trans N-[(1S)-2-[4-(3,5-dimethyl-1H-pyrazol-4-yl)anilino]-1-(4-methylcyclohexyl)-2-oxo-ethyl]-2-isopropyl-pyrazole-3-carboxamide]
24 | < 0.1 | CCC(C)n1nccc1C(=O)N[C@H](C(=O)Nc1ccc(-c2c(C)n[nH]c2C)cc1)C(C1CC1)C1CC1 (stereo partly drawn) [Example 128, N-[(1S)-1-(dicyclopropylmethyl)-2-[4-(3,5-dimethyl-1H-pyrazol-4-yl)anilino]-2-oxo-ethyl]-2-sec-butyl-pyrazole-3-carboxamide]
25 | < 0.1 | Cc1n[nH]c(C)c1-c1ccc(NC(=O)[C@@H](NC(=O)c2ccnn2CC2CC2)C(C2CC2)C2CC2)cc1 [Example 129, 2-(cyclopropylmethyl)-N-[(1S)-1-(dicyclopropylmethyl)-2-[4-(3,5-dimethyl-1H-pyrazol-4-yl)anilino]-2-oxo-ethyl]pyrazole-3-carboxamide]
26 | < 0.1 | Cc1n[nH]c(C)c1-c1ccc(NC(=O)[C@@H](NC(=O)c2ccnn2CCC(F)(F)F)C(C2CC2)C2CC2)cc1 [Example 130, N-[(1S)-1-(dicyclopropylmethyl)-2-[4-(3,5-dimethyl-1H-pyrazol-4-yl)anilino]-2-oxo-ethyl]-2-(3,3,3-trifluoropropyl)pyrazole-3-carboxamide]
27 | < 0.1 | Cc1n[nH]c(C)c1-c1ccc(NC(=O)[C@@H](NC(=O)c2ccnn2CC(C)C)C(C2CC2)C2CC2)cc1 [Example 132, N-[(1S)-1-(dicyclopropylmethyl)-2-[4-(3,5-dimethyl-1H-pyrazol-4-yl)anilino]-2-oxo-ethyl]-2-isobutyl-pyrazole-3-carboxamide]
28 | < 0.1 | CCCn1nccc1C(=O)N[C@H](C(=O)Nc1ccc(-c2c(C)n[nH]c2C)cc1)C(C1CC1)C1CC1 [Example 133, N-[(1S)-1-(dicyclopropylmethyl)-2-[4-(3,5-dimethyl-1H-pyrazol-4-yl)anilino]-2-oxo-ethyl]-2-propyl-pyrazole-3-carboxamide]
